CC50 and EC50 data for 20 compounds are collected here from patent publication US11053235B2, “Substituted 1,4-dihydropyrimidines for the treatment of HBV infection or HBV-induced diseases” (Janssen Sciences Ireland Unlimited Company, priority 2018, dated 2021).

Data set [1] in a line: Cytotoxicity determination in HepG2.2.15 cells (CCK-8). The format is cell-based. To be noted: human, 6 days treatment, CCK-8, highest concentration 100 uM. Summed up: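 CC50 derived from CCK-8 absorbance (450 nm, 630 nm reference) after 2.5 h incubation at 37 °C. Before that, HepG2.2.15 cells (5,000/well, 2% FBS) received an 8-point, 3-fold compound series topping at 100 uM for 6 days, with one mid-treatment medium change.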

A further data set has as its system HBV. Nature of the data set: Anti-viral assay in HepG2.2.15 cells: HBV inhibitory activity (HBV DNA in culture medium by q-PCR). The format is cell-based. The following applies: Hepatitis B virus, HepG2.2.15, 144 h. Summed up:
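HBV DNA released into the medium was measured by q-PCR after 6-day compound exposure of HepG2.2.15 cells (40,000/well, 2% FBS, one mid-course medium change). Eight 3-fold dilutions, highest 10 uM; EC50 derived by curve fitting.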

The mark [2] stands for this setting: HepG2.2.15 cells, 6 days treatment, HBV DNA in culture medium by q-PCR, highest concentration 10 uM, read-out: EC50.

Where a name gives a salt, the structure may show the parent alone. Read-outs that look alike come from different tables or passages of the source. Where only a bound is given, the exact number is not on record here.

In general, CC50 refers to the concentration giving 50% cytotoxicity. Low values mean greater toxicity to the cells, high ones lower toxicity to the cells. For orientation: EC50 means the concentration giving half of the maximal effect.

With `CCOC(=O)C1=C(C2CCN(c3nccc(C(=O)O)n3)CC2)NC(c2nccs2)=NC1c1ccc(F)c(F)c1Cl` (single isomer, unassigned) [II-65-B, 2-(4-(6-(2-chloro-3,4-difluorophenyl)-5-(ethoxycarbonyl)-2-(thiazol-2-yl)-3,6-dihydropyrimidin-4-yl)piperidin-1-yl)pyrimidine-4-carboxylic Acid], in data set [1], the CC50 at 6 days was 6640 nM. Moreover, the EC50 with HBV (setting [2]) is 4.6 nM.
The matching figures for `CCOC(=O)C1=C(C2CCN(c3ncc(CCC(=O)O)cn3)CC2)NC(c2nccs2)=NC1c1ccc(F)c(F)c1Cl` (single isomer, unassigned) [II-66-B, 3-(2-(4-(6-(2-Chloro-3,4-difluorophenyl)-5-(ethoxycarbonyl)-2-(thiazol-2-yl)-3,6-dihydropyrimidin-4-yl)piperidin-1-yl)pyrimidin-5-yl)propanoic Acid]: 10900 nM and 7.2 nM.
`CCOC(=O)C1=C(C2CCN(c3ncc(C(C)(C)C(=O)O)cn3)CC2)NC(c2nccs2)=NC1c1ccc(F)c(F)c1Cl` (single isomer, unassigned) [II-67-B, 2-(2-(4-(6-(2-Chloro-3,4-difluorophenyl)-5-(ethoxycarbonyl)-2-(thiazol-2-yl)-3,6-dihydropyrimidin-4-yl)piperidin-1-yl)pyrimidin-5-yl)-2-methylpropanoic Acid]: half-maximal cytotoxicity in data set [1] (CC50 at 6 days) was put at 2020 nM. Also, the EC50 in the data set with HBV (setting [2]) was 12 nM.
`CCOC(=O)C1=C(C2CCN(c3nc(C(=O)O)c(C)o3)CC2)NC(c2nccs2)=NC1c1ccc(F)c(F)c1Cl` (single isomer, unassigned) [II-68-B, 2-(4-(6-(2-Chloro-3,4-difluorophenyl)-5-(ethoxycarbonyl)-2-(thiazol-2-yl)-3,6-dihydropyrimidin-4-yl)piperidin-1-yl)5-methyloxazole-4-carboxylic Acid]: in data set [1], the CC50 at 6 days turned out to be 8320 nM. The EC50 in the data set on HBV (setting [2]) worked out at 16 nM.
For `CCOC(=O)C1=C(C2CCN(c3ncc(CC(=O)O)cn3)CC2)NC(c2nccs2)=NC1c1ccc(F)c(F)c1Cl` (single isomer, unassigned) [II-69-B, 2-(2-(4-(6-(2-Chloro-3,4-difluorophenyl)-5-(ethoxycarbonyl)-2-(thiazol-2-yl)-3,6-dihydropyrimidin-4-yl)piperidin-1-yl)pyrimidin-5-yl)acetic Acid] the same measures were 4080 nM and 3.1 nM.
The matching figures for `CCOC(=O)C1=C(C2CCN(c3nc(C(=O)O)co3)CC2)NC(c2nccs2)=NC1c1ccc(F)c(F)c1Cl` (single isomer, unassigned) [II-70-B, 2-(4-(6-(2-Chloro-3,4-difluorophenyl)-5-(ethoxycarbonyl)-2-(thiazol-2-yl)-3,6-dihydropyrimidin-4-yl)piperidin-1-yl)oxazole-4-carboxylic Acid]: 11800 nM and 10 nM.
`CCOC(=O)C1=C(C2CCN(c3nc(C)c(C(=O)O)c(C)n3)CC2)NC(c2nccs2)=NC1c1ccc(F)c(F)c1Cl` (single isomer, unassigned) [II-71-B, 2-(4-(6-(2-chloro-3,4-difluorophenyl)-5-(ethoxycarbonyl)-2-(thiazol-2-yl)-3,6-dihydropyrimidin-4-yl)piperidin-1-yl)-4,6-dimethylpyrimidine-5-carboxylic Acid]: half-maximal cytotoxicity in data set [1] (CC50 at 6 days) was put at 6330 nM. For the same compound, the EC50 in the data set with HBV (setting [2]) is 20 nM.
The matching figures for `CCOC(=O)C1=C(C2CCN(c3ncc(C(=O)O)c(C)n3)CC2)NC(c2nccs2)=NC1c1ccc(F)c(F)c1Cl` (single isomer, unassigned) [II-73-B, 2-(4-(6-(2-Chloro-3,4-difluorophenyl)-5-(ethoxycarbonyl)-2-(thiazol-2-yl)-3,6-dihydropyrimidin-4-yl)piperidin-1-yl)-4-methylpyrimidine-5-carboxylic Acid]: 5920 nM and 25 nM.
Compound `CCOC(=O)C1=C(C2CCN(c3ncc(C(=O)O)cn3)CC2)NC(c2nccs2)=NC1c1ccc(F)c(F)c1Cl` (single isomer, unassigned) [II-74-B, 2-(4-(6-(2-Chloro-3,4-difluorophenyl)-5-(ethoxycarbonyl)-2-(thiazol-2-yl)-3,6-dihydropyrimidin-4-yl)piperidin-1-yl)pyrimidine-5-carboxylic Acid] gave a CC50 at 6 days in data set [1] of 9310 nM. Besides, the EC50 in the data set with HBV (setting [2]) stood at 6.6 nM.
For `CCOC(=O)C1=C(C2CCN(c3nncs3)CC2)NC(c2nccs2)=NC1c1ccc(F)c(F)c1Cl` (single isomer, unassigned) [II-75-X, Ethyl 6-(1-(1,3,4-thiadiazol-2-yl)piperidin-4-yl)-4-(2-chloro-3,4-difluorophenyl)-2-(thiazol-2-yl)-1,4-dihydropyrimidine-5-carboxylate] the same measures were 9810 nM and 30 nM.
`CCOC(=O)C1=C(C2CCN(c3cnc(C(=O)O)s3)CC2)NC(c2nccs2)=NC1c1ccc(F)c(F)c1Cl` (single isomer, unassigned) [II-76-B, 5-(4-(6-(2-Chloro-3,4-difluorophenyl)-5-(ethoxycarbonyl)-2-(thiazol-2-yl)-3,6-dihydropyrimidin-4-yl)piperidin-1-yl)thiazole-2-carboxylate lithium salt] showed a CC50 at 6 days in data set [1] of 6680 nM. In the data set on HBV, this compound showed an EC50 of 90 nM.
`CCOC(=O)C1=C(C2CCN(c3nc(COC)c(C(=O)O)s3)CC2)NC(c2nccs2)=NC1c1ccc(F)c(F)c1Cl` (single isomer, unassigned) [II-77-B, 2-(4-(6-(2-Chloro-3,4-difluorophenyl)-5-(ethoxycarbonyl)-2-(thiazol-2-yl)-3,6-dihydropyrimidin-4-yl)piperidin-1-yl)-4-(methoxymethyl)thiazole-5-carboxylic Acid] returned a CC50 at 6 days in data set [1] of 9740 nM. For the same compound, in the data set on HBV (setting [2]), the EC50 was found to be 29 nM.
As for `CCOC(=O)C1=C(C2CCN(c3ncc(C(=O)O)s3)CC2)NC(c2nccs2)=NC1c1ccc(F)c(F)c1Cl` (single isomer, unassigned) [II-78-B, 2-(4-(6-(2-Chloro-3,4-difluorophenyl)-5-(ethoxycarbonyl)-2-(thiazol-2-yl)-3,6-dihydropyrimidin-4-yl)piperidin-1-yl)thiazole-5-carboxylic Acid], the midpoint of cytotoxicity in data set [1], the CC50 at 6 days, lay at 12100 nM. The EC50 with HBV (setting [2]) is less than 4.6 nM.
As to `CCOC(=O)C1=C(C2CCN(c3nc(C(F)(F)F)c(C(=O)O)s3)CC2)NC(c2nccs2)=NC1c1ccc(F)c(F)c1Cl` (single isomer, unassigned) [II-79-B, 2-(4-(6-(2-Chloro-3,4-difluorophenyl)-5-(ethoxycarbonyl)-2-(thiazol-2-yl)-3,6-dihydropyrimidin-4-yl)piperidin-1-yl)-4-(trifluoromethyl)thiazole-5-carboxylic Acid], in data set [1], the CC50 at 6 days worked out at 1140 nM. In addition, the EC50 in the data set with HBV (setting [2]) was determined as 13 nM.
For `CCOC(=O)C1=C(C2CCN(c3nc(C(=O)O)cs3)CC2)NC(c2nccs2)=NC1c1ccc(F)c(F)c1Cl` (single isomer, unassigned) [II-80-B, 2-(4-(6-(2-Chloro-3,4-difluorophenyl)-5-(ethoxycarbonyl)-2-(thiazol-2-yl)-3,6-dihydropyrimidin-4-yl)piperidin-1-yl)thiazole-4-carboxylic Acid] the same measures were 10200 nM and 45 nM.
In the case of `COC(=O)C1=C(C2CCN(c3ncc(C)c(C(=O)O)n3)CC2)NC(c2nccs2)=NC1c1ccc(Br)cc1Cl` (single isomer, unassigned) [II-81-B, 2-(4-(6-(4-bromo-2-chlorophenyl)-5-(methoxycarbonyl)-2-(thiazol-2-yl)-3,6-dihydropyrimidin-4-yl)piperidin-1-yl)-5-methylpyrimidine-4-carboxylic Acid], the CC50 at 6 days in data set [1] came to 12400 nM. In addition, in the data set on HBV (setting [2]), the EC50 worked out at 54 nM.
As to `COC(=O)C1=C(C2CCN(c3ncc(C(=O)O)s3)CC2)NC(c2nccs2)=NC1c1ccc(F)c(F)c1Br` (single isomer, unassigned) [II-82-B, 2-(4-(6-(2-Bromo-3,4-difluorophenyl)-5-(methoxycarbonyl)-2-(thiazol-2-yl)-3,6-dihydropyrimidin-4-yl)piperidin-1-yl)thiazole-5-carboxylic Acid], in data set [1], the CC50 at 6 days was found to be 9480 nM. Further, in the data set on HBV (setting [2]), the EC50 stood at 9.1 nM.
The matching figures for `COC(=O)C1=C(C2CCN(c3ncc(C(=O)O)s3)CC2)NC(c2nccs2)=NC1c1cccc(F)c1Br` (single isomer, unassigned) [II-83-B, 2-(4-(6-(2-Bromo-3-fluorophenyl)-5-(methoxycarbonyl)-2-(thiazol-2-yl)-3,6-dihydropyrimidin-4-yl)piperidin-1-yl)thiazole-5-carboxylic Acid]: 2840 nM and 16 nM.
The compound `COC(=O)C1=C(C2CCN(c3ncc(C(=O)O)s3)CC2)NC(c2nccs2)=NC1c1ccc(F)cc1Br` (single isomer, unassigned) [II-84-B, 2-(4-(6-(2-Bromo-4-fluorophenyl)-5-(methoxycarbonyl)-2-(thiazol-2-yl)-3,6-dihydropyrimidin-4-yl)piperidin-1-yl)thiazole-5-carboxylic Acid] displayed a CC50 at 6 days in data set [1] of 14900 nM. The EC50 in the data set on HBV (setting [2]) was found to be 6.4 nM.
For `CCOC(=O)C1=C(C2CCN(c3nc(C(=O)O)co3)C2)NC(c2nccs2)=NC1c1ccc(F)c(F)c1Cl` (single isomer, unassigned) [II-85-A, 2-(3-(6-(2-chloro-3,4-difluorophenyl)-5-(ethoxycarbonyl)-2-(thiazol-2-yl)-3,6-dihydropyrimidin-4-yl)pyrrolidin-1-yl)oxazole-4-carboxylic Acid] the same measures were 4490 nM and 720 nM.
